Measured values taken from article PMC6136390, “Coptisine-induced inhibition of Helicobacter pylori: elucidation of specific mechanisms by probing urease active site and its maturation process” (Journal of Enzyme Inhibition and Medicinal Chemistry, 2018).
Like-named read-outs stand apart in the source and are kept apart here.

Experiments:
[1] = tested on: H. pylori strains; assay: Minimal inhibitory concentration assay (agar dilution); assay type: cell-based, Helicobacter pylori
Description: (§1) Fourteen H. pylori strains were used in this study. NCTC 11637 and NCTC 26695 strains were purchased from American Type Culture Collection. Sydney Strain-1 (SS1) was kindly provided by Prof. Richard Ferrero of Monash University, Australia. Clinical isolate ICDC 111001 was provided by Prof. Zhang Jian-zhong of the Chinese Center for Disease Control and Prevention, China. Ten clinical isolates (Hp1868, Hp1869, Hp1870, Hp1871, Hp1872, Hp1873, Hp1874, Hp1875, Hp1876, and Hp1877) were obtained from Renji Hospital, Shanghai Jiaotong University.
(§2) All strains were cultured in Columbia agar base containing 7% sheep blood at 37 °C in a micro-aerophilic environment (5% O2, 10% CO2, and 85% N2). After 3 days, H. pylori was scraped and suspended in phosphate buffered saline (PBS). Turbidimetry was employed to adjust the concentrations of different H. pylori strains (turbidity equivalent to 1.0 McFarland standard). Crude HPU was obtained according to the method described by Matsubara et al.[42]
In this study, different concentrations (12.5, 25, 50, and 100 μg/mL) of berberine, palmatine, epiberberine, jatrorrhizine, and coptisine were used to evaluate antimicrobial activity against the standard H. pylori strain NCTC 11637. The agar dilution method was then used to analyse the antibacterial effects of coptisine against two H. pylori standard strains (SS1 and NCTC 26695) and eleven clinical isolates (ICDC 111001, HP 1868, HP 1869, HP 1870, HP 1871, HP 1872, HP 1873, HP 1874, HP 1875, HP 1876, and HP 1877). In this assay, 100 μL of H. pylori suspension (McFarland = 1.0) was added to the test compound-containing or DMSO-containing (control) Columbia blood agar plate. CLR and MET were used as positive controls in this experiment. Minimum inhibitory concentration (MIC) was defined as the lowest concentration at which no strain growth was observed by visual examination after 3 days. This experiment was repeated twice.

[2] = tested on: H. pylori strains; assay: Minimal bactericidal concentration assay (broth dilution); assay type: cell-based, Helicobacter pylori
Description: as §1, §2
The broth dilution method was used to determine the minimal bactericidal concentrations (MBCs) of coptisine (25, 37.5, 50, 62.5, 75, 100, and 125 μg/mL) against three H. pylori standard strains (SS1, NCTC 11637, and NCTC 26695) and eleven clinical isolates (ICDC 111001, HP 1868, HP 1869, HP 1870, HP 1871 and HP 1872, HP 1873, HP 1874, HP 1875, HP 1876, and HP 1877). In brief, H. pylori suspension (McFarland = 1.0) was exposed to DMSO (control) and coptisine at 2–4 times MIC in BHI with 10% FBS. After shaking at 120 rpm in the tri-gas incubator for 6 h, 100 μL samples were removed and cultured in Columbia blood agar base[43]. MBC was defined as a 99.9% decrease in viability compared with the control. The experiment was repeated twice.

[3] = target: T1, jack bean urease (JBU) (Canavalia ensiformis, UniProt P07374); assay: Progress curve analysis; assay type: biochemical; details: 0.63, 1.25 and 2.50 mM Cop, non-pre-incubated and pre-incubated systems
T1 construct: purchased Sigma Aldrich (Steineheim, Germany) type III (catalogue number not given)
Method: (§3) Reaction progress curves for urea hydrolysis in the non-pre-incubated and pre-incubated systems were generated by plotting the concentration of ammonia generated as a function of the incubation time P(t) in the absence or presence of coptisine. Coptisine and urease were mixed immediately before the reaction in the non-pre-incubated system and were mixed and incubated for 20 min before urea was added to initiate the reaction in the pre-incubated system. Urease activity relative to the standard assay was determined at different time intervals.

[4] = target: T2, H. pylori urease (HPU) (Helicobacter pylori, UniProt P69996); assay: Progress curve analysis; assay type: biochemical; details: 0.63, 1.25 and 2.50 mM Cop, non-pre-incubated and pre-incubated systems
T2 construct: Crude HPU was obtained according to the method described by Matsubara et al; endogenous in cells; host or cells: cultured Helicobacter pylori (strain not specified)
Method: as §3

[5] = target: T3, UreG dimer (Helicobacter pylori, UniProt Q09066); assay: UreG dimer formation inhibition assay (size exclusion chromatography); assay type: biochemical; details: 500 μM coptisine, 300 μM GTP, 5 μM UreG monomer, 2.5 μM NiSO4, 60 min
T3 construct: HisSUMO (N, cleaved yes); made in house; host or cells: Escherichia coli
Method: Size exclusion chromatography technology was used to analyse the effects of coptisine on UreG dimer formation. Experiment was carried out in the buffer containing 5 μM UreG monomer and 2.5 μM NiSO4, and divided into the following three groups: 300 μM GTP (positive control), buffer A (negative control), and 300 μM GTP +500 μM coptisine. After reaction for 60 min, samples were then injected into a Superdex 75 analytical gel filtration column pre-equilibrated with buffer A.

[6] = clinical isolate HP 1869 (MET resistance), pH = 7.2
[7] = clinical isolate HP 1870 (CLR and MET resistance), pH = 7.2
[8] = clinical isolate HP 1871 (MET resistance), pH = 7.2
[9] = clinical isolate HP 1876 (CLR and MET resistance), pH = 7.2

T3 sequence (Q09066 whole entry): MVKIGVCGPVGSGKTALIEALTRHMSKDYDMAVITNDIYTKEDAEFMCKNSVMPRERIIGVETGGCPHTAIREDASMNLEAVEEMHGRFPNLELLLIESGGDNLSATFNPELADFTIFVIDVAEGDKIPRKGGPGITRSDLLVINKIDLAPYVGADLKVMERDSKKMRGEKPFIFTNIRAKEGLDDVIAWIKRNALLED
T1 sequence (P07374 whole entry, looked up): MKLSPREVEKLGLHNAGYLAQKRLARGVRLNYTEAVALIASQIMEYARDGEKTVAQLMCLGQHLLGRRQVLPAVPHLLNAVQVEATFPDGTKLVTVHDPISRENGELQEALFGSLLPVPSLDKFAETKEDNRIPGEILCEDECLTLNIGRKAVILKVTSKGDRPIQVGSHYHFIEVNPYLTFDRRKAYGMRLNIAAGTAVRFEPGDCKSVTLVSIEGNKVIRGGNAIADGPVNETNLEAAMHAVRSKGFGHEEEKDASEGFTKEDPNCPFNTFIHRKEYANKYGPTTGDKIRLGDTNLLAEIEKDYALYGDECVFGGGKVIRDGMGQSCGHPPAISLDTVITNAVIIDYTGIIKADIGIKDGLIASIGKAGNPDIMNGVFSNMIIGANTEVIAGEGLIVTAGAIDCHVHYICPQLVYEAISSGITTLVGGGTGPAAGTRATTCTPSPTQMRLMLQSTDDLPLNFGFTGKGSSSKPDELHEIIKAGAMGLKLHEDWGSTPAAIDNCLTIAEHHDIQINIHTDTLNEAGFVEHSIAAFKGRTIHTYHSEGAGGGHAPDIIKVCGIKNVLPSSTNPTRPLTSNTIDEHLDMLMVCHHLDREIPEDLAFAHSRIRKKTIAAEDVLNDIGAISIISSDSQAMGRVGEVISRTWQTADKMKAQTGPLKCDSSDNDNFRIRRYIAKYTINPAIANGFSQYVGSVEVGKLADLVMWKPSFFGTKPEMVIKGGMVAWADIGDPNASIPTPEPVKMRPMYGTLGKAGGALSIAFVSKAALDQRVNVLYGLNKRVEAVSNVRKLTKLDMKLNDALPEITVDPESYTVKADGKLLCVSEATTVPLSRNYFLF
T2 sequence (P69996 whole entry): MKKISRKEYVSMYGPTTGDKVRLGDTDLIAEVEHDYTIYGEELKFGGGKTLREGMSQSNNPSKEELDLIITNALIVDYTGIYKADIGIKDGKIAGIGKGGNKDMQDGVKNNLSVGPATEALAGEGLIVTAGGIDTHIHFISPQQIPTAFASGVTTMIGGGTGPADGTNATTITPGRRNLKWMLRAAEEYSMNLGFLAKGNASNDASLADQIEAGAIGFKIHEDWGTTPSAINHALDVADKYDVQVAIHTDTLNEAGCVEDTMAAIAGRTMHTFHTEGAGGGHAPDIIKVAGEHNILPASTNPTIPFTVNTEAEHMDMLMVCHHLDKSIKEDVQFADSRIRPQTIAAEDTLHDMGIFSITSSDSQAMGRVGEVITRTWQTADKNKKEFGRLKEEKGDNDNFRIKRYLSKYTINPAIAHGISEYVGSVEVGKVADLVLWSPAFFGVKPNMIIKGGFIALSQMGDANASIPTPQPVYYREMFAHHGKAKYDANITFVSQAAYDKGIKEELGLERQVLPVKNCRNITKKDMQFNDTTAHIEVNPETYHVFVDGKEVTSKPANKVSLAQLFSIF
T2 sequence (P14916 whole entry, further chain): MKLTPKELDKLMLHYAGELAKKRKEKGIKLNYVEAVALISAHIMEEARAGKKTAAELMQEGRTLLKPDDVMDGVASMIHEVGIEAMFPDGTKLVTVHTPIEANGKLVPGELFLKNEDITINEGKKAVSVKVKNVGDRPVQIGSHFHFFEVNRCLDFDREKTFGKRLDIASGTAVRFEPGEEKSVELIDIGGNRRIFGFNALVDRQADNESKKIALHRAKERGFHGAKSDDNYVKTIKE

c1c2c(cc3c1OCO3)-c1cc3ccc4c(c3c[n+]1CC2)OCO4 [Coptisine]
MIC ([1]; Helicobacter pylori, NCTC11637, pH 7.2, standard strain NCTC 11637, pH 7.2): 25 µg/mL
MIC ([1]; Helicobacter pylori, NCTC26695, strain NCTC 26695, pH = 7.2): 25 µg/mL
MIC ([1]; Helicobacter pylori, clinical isolate HP 1868, pH = 7.2): 50 µg/mL
MIC ([1]; Helicobacter pylori, clinical isolate HP 1869 (MET resistance), pH = 7.2): 50 µg/mL
MIC ([1]; Helicobacter pylori, clinical isolate HP 1870 (CLR and MET resistance), pH = 7.2): 25 µg/mL
MIC ([1]; Helicobacter pylori, clinical isolate HP 1871 (MET resistance), pH = 7.2): 25 µg/mL
MIC ([1]; Helicobacter pylori, clinical isolate HP 1872, pH = 7.2): 25 µg/mL
MIC ([1]; Helicobacter pylori, clinical isolate HP 1873, pH = 7.2): 50 µg/mL
MIC ([1]; Helicobacter pylori, clinical isolate HP 1874, pH = 7.2): 50 µg/mL
MIC ([1]; Helicobacter pylori, clinical isolate HP 1875, pH = 7.2): 50 µg/mL
MIC ([1]; Helicobacter pylori, clinical isolate HP 1876 (CLR and MET resistance), pH = 7.2): 50 µg/mL
MIC ([1]; Helicobacter pylori, clinical isolate HP 1877, pH = 7.2): 50 µg/mL
MIC ([1]; Helicobacter pylori, clinical isolate ICDC 111001, pH = 7.2): 25 µg/mL
MIC ([1]; Helicobacter pylori, read-out: MICs against eleven clinical isolates, eleven clinical isolates from three sites in China): 25 to 50 µg/mL
MIC ([1]; Helicobacter pylori, strain SS1, pH = 7.2): 25 µg/mL
MIC [1, 6]: 50 µg/mL
MIC [1, 7]: 25 µg/mL
MIC [1, 8]: 25 µg/mL
MIC [1, 9]: 50 µg/mL
MIC ([1]; standard strain NCTC 11637, pH 7.2): 25 µg/mL
MIC ([1]; strain NCTC 26695, pH = 7.2): 25 µg/mL
MIC ([1]; strain SS1, pH = 7.2): 25 µg/mL
MBC ([2]; Helicobacter pylori, NCTC11637, strain NCTC 11637, pH = 7.2, read-out: MBC): 62.5 µg/mL
MBC ([2]; Helicobacter pylori, NCTC26695, strain NCTC 26695, pH = 7.2, read-out: MBC): 37.5 µg/mL
MBC ([2]; Helicobacter pylori, clinical isolate HP 1868, pH = 7.2, read-out: MBC): 62.5 µg/mL
MBC ([2]; Helicobacter pylori, clinical isolate HP 1869 (MET resistance), pH = 7.2, read-out: MBC): 62.5 µg/mL
MBC ([2]; Helicobacter pylori, clinical isolate HP 1870 (CLR and MET resistance), pH = 7.2, read-out: MBC): 37.5 µg/mL
MBC ([2]; Helicobacter pylori, clinical isolate HP 1871 (MET resistance), pH = 7.2, read-out: MBC): 37.5 µg/mL
MBC ([2]; Helicobacter pylori, clinical isolate HP 1872, pH = 7.2, read-out: MBC): 37.5 µg/mL
MBC ([2]; Helicobacter pylori, clinical isolate HP 1873, pH = 7.2, read-out: MBC): 75 µg/mL
MBC ([2]; Helicobacter pylori, clinical isolate HP 1874, pH = 7.2, read-out: MBC): 100 µg/mL
MBC ([2]; Helicobacter pylori, clinical isolate HP 1875, pH = 7.2, read-out: MBC): 75 µg/mL
MBC ([2]; Helicobacter pylori, clinical isolate HP 1876 (CLR and MET resistance), pH = 7.2, read-out: MBC): 75 µg/mL
MBC ([2]; Helicobacter pylori, clinical isolate HP 1877, pH = 7.2, read-out: MBC): 125 µg/mL
MBC ([2]; Helicobacter pylori, clinical isolate ICDC 111001, pH = 7.2, read-out: MBC): 50 µg/mL
MBC ([2]; Helicobacter pylori, strain SS1, pH = 7.2, read-out: MBC): 37.5 µg/mL
MBC/MIC ([2]; clinical isolate HP 1868): 1.25
MBC/MIC ([2]; clinical isolate HP 1869): 1.25
MBC [2, 6]: 62.5 µg/mL
MBC/MIC ([2]; clinical isolate HP 1870): 1.5
MBC [2, 7]: 37.5 µg/mL
MBC/MIC ([2]; clinical isolate HP 1871): 1.5
MBC [2, 8]: 37.5 µg/mL
MBC/MIC ([2]; clinical isolate HP 1872): 1.5
MBC/MIC ([2]; clinical isolate HP 1873): 1.5
MBC/MIC ([2]; clinical isolate HP 1874): 2
MBC/MIC ([2]; clinical isolate HP 1875): 1.5
MBC/MIC ([2]; clinical isolate HP 1876): 1.5
MBC [2, 9]: 75 µg/mL
MBC/MIC ([2]; clinical isolate HP 1877): 2.5
MBC/MIC ([2]; clinical isolate ICDC 111001): 2
MBC/MIC ([2]; strain NCTC 11637): 2.5
MBC/MIC ([2]; strain NCTC 26695): 1.5
MBC/MIC ([2]; strain SS1): 1.5
binding behaviour from reaction progress curves, JBU [3]: slow-binding inhibition
binding behaviour from reaction progress curves, HPU [4]: slow-binding inhibition
UreG dimerisation [5]: obviously inhibited
